Assay results: patent publication US20070249655A1, “4-Substituted-1,5-Dihydro-Pyrido[3,2-B]Indol-2-Ones” (priority 2004, published 2007)
Like-named read-outs stand apart in the source and are kept apart here.

Experiments:
[1] = test system: wild type laboratory HIV strain (HIV-1 strain LAI); experiment: Antiviral cellular assay (MT4 cells, MTT), wild type; type: cell-based
Description: The compounds of the present invention were examined for anti-viral activity in a cellular assay. […] The cellular assay was performed according to the following procedure.
(§1) HIV- or mock-infected MT4 cells were incubated for five days in the presence of various concentrations of the inhibitor. At the end of the incubation period, the replicating virus in the control cultures has killed all HIV-infected cells in the absence of any inhibitor. Cell viability was determined by measuring the concentration of MTT, a yellow, water soluble tetrazolium dye that is converted to a purple, water insoluble formazan in the mitochondrial of living cells only. Upon solubilization of the resulting formazan crystals with isopropanol, the absorbance of the solution was monitored at 540 nm. The values correlate directly to the number of living cells remaining in the culture at the completion of the five day incubation. The inhibitory activity of the compound was monitored on the virus-infected cells and was expressed as EC50 and EC90. These values represent the amount of the compound required to protect 50% and 90%, respectively, of the cells from the cytopathogenic effect of the virus. The toxicity of the compound was measured on the mock-infected cells and was expressed as CC50, which represents the concentration of compound required to inhibit the growth of the cells by 50%. The selectivity index (SI) (ratio CC50/EC50) is an indication of the selectivity of the anti-HIV activity of the inhibitor. Wherever results are reported as e.g. pEC50 or pCC50 values, the result is expressed as the negative logarithm of the result expressed as EC50 or CC50 respectively.

[2] = test system: HIV strain A (Y181C); experiment: Antiviral cellular assay, mutant strain A; type: cell-based; conditions: for fold resistance, mutant A: EC50 mutant / EC50 wild type, rounded to nearest integer; for EC50: Human immunodeficiency virus 1, read-out: pEC50 towards mutant A (converted)
Description: as §1
(§2) Because of the increasing emergence of drug resistant HIV strains, the present compounds were also tested for their potency against clinically isolated HIV strains harbouring several mutations (Tables 1 and 7). These mutations are associated with resistance to reverse transcriptase inhibitors and result in viruses that show various degrees of phenotypic cross-resistance to the currently commercially available drugs such as for instance AZT, didanosine, nevirapine, lamivudine and zalcibatine.

[3] = test system: HIV strain B (K103N); experiment: Antiviral cellular assay, mutant strain B; type: cell-based; conditions: for fold resistance, mutant B: EC50 mutant / EC50 wild type, rounded to nearest integer; for EC50: Human immunodeficiency virus 1, read-out: pEC50 towards mutant B (converted)
Description: as §1, §2

[4] = test system: HIV strain C (L100I; K103N); experiment: Antiviral cellular assay, mutant strain C; type: cell-based; conditions: for fold resistance, mutant C: EC50 mutant / EC50 wild type, rounded to nearest integer; for EC50: Human immunodeficiency virus 1, read-out: pEC50 towards mutant C (converted)
Description: as §1, §2

[5] = test system: HIV strain D (L100I;K103N); experiment: Antiviral cellular assay, mutant strain D; type: cell-based; conditions: for fold resistance, mutant D: EC50 mutant / EC50 wild type, rounded to nearest integer; for EC50: Human immunodeficiency virus 1, read-out: pEC50 towards mutant D (converted)
Description: as §1, §2

[6] = test system: HIV strain E (F227C); experiment: Antiviral cellular assay, mutant strain E; type: cell-based; conditions: for fold resistance, mutant E: EC50 mutant / EC50 wild type, rounded to nearest integer; for EC50: Human immunodeficiency virus 1, read-out: pEC50 towards mutant E (converted)
Description: as §1, §2

[7] = test system: HIV strain F (Y188L); experiment: Antiviral cellular assay, mutant strain F; type: cell-based; conditions: for fold resistance, mutant F: EC50 mutant / EC50 wild type, rounded to nearest integer; for EC50: Human immunodeficiency virus 1, read-out: pEC50 towards mutant F (converted)
Description: as §1, §2

[8] = test system: HIV strain G (V106A, F227L); experiment: Antiviral cellular assay, mutant strain G; type: cell-based; conditions: for fold resistance, mutant G: EC50 mutant / EC50 wild type, rounded to nearest integer; for EC50: Human immunodeficiency virus 1, read-out: pEC50 towards mutant G (converted)
Description: as §1, §2

[9] = test system: HIV strain H (K103N, Y181C); experiment: Antiviral cellular assay, mutant strain H; type: cell-based; conditions: for fold resistance, mutant H: EC50 mutant / EC50 wild type, rounded to nearest integer; for EC50: Human immunodeficiency virus 1, read-out: pEC50 towards mutant H (converted)
Description: as §1, §2

[10] = test system: HIV strain I (K101E, K103N); experiment: Antiviral cellular assay, mutant strain I; type: cell-based; conditions: for fold resistance, mutant I: EC50 mutant / EC50 wild type, rounded to nearest integer; for EC50: Human immunodeficiency virus 1, read-out: pEC50 towards mutant I (converted)
Description: as §1, §2

[11] = test system: HIV strain J (I31L, L100I, K103N, E138G, Y181C, L214F); experiment: Antiviral cellular assay, mutant strain J; type: cell-based; conditions: for fold resistance, mutant J: EC50 mutant / EC50 wild type, rounded to nearest integer; for EC50: Human immunodeficiency virus 1, read-out: pEC50 towards mutant J (converted)
Description: as §1, §2

[12] = test system: HIV strain K (multi-mutant incl. M41L, D67N, K103N, Y181C, L210W, T215Y); experiment: Antiviral cellular assay, mutant strain K; type: cell-based; conditions: for fold resistance, mutant K: EC50 mutant / EC50 wild type, rounded to nearest integer; for EC50: Human immunodeficiency virus 1, read-out: pEC50 towards mutant K (converted)
Description: as §1, §2

[13] = test system: HIV-2; experiment: Antiviral cellular assay, HIV-2; type: cell-based; conditions: Human immunodeficiency virus 2; read-out: pEC50 towards HIV-2 (converted)
Description: as §1, with “The toxicity of the compound was measured on the mock-infected cells and was expressed as CC50, which represents the concentration of compound required to inhibit the growth of the cells by 50%. The selectivity index (SI) (ratio CC50/EC50) is an indication of the selectivity of the anti-HIV activity of the inhibitor.” left out
(§3) Row WT: pEC50 against wild type HlV-LAI strain. The toxicity (Tox) is expressed as the pCC50 value as determined with mock transfected cells. ND means not determined.

[14] = test system: SIV (simian immunodeficiency virus); experiment: Antiviral cellular assay, SIV; type: cell-based; conditions: read-out: pEC50 towards SIV (converted)
[15] = in vitro; type: cell-based; conditions: human
Description: as §1, with “The toxicity of the compound was measured on the mock-infected cells and was expressed as CC50, which represents the concentration of compound required to inhibit the growth of the cells by 50%. The selectivity index (SI) (ratio CC50/EC50) is an indication of the selectivity of the anti-HIV activity of the inhibitor.” left out
as §3

[16] = biological target: T1, HIV reverse transcriptase (Human immunodeficiency virus type 1 group M subtype B, UniProt P04585); experiment: In vitro inhibition of HIV reverse transcriptase (kit TRK 1022); type: biochemical; conditions: enzyme assay, no conversion to active metabolite needed
T1 construct: 5 μl HIV RT enzyme solution at a final enzyme activity of 15 mU per 50 μl reaction; purchased Amersham Life Sciences TRK 1022
Description: In vitro Inhibition of HIV Reverse Transcriptase The assay was run using kit TRK 1022 (Amersham Life Sciences) according to the manufacturer's instructions with slight modifications. Compounds were diluted in steps of ¼ in 100% DMSO and subsequently transferred to Medium A (1/50 dilution; medium A: RPMI 1640+10% FetalClone II+Gentamycin 20 mg/L). 25 μl of compound (in 2% DMSO in Medium A) or 25 μl of 2% DMSO in medium A was added to wells. To each well was added 25.5 μl master mix (master mix: 5 μl primer/template beads, 10 μl assay buffer, 0.5 μl tracer (3H-TTP), 5 μl HIV RT enzyme solution at a final enzyme activity of 15 mU per 50 μl reaction, 5 μl medium A). The plates were sealed, marked as radioactive and incubated during 4 hours at 37° C. Subsequently, 100 μl stop solution was added to each well (except R1). The radioactivity was counted in a TopCount.

[17] = test system: Mycobacterium b.; experiment: Specificity versus non-viral pathogens: Mycobacterium b.; type: cell-based
[18] = test system: Plasmodium f.; experiment: Specificity versus non-viral pathogens: Plasmodium f.; type: cell-based
[19] = test system: Trypanosoma b.; experiment: Specificity versus non-viral pathogens: Trypanosoma b.; type: cell-based
[20] = test system: Trypanosoma c.; experiment: Specificity versus non-viral pathogens: Trypanosoma c.; type: cell-based
[21] = Human immunodeficiency virus 1, MT4, read-out: EC50 value, wild-type HIV-LAI strain
[22] = Human immunodeficiency virus 1, WT, MT4 cells, read-out: pEC50 against wild type HIV-LAI strain (converted)

## N#Cc1cc2c(c3ccccc3n2CC(=O)O)n(-c2ccc([N+](=O)[O-])cc2)c1=O [Compound 19]
[1]; [21]
  EC50: 1 to 32 µM

## Cn1c2ccccc2c2c1ccc(=O)n2-c1ccc([N+](=O)[O-])cc1 [Compound 67]
[1]; [21]
  EC50: < 1 µM

## N#Cc1cc2[nH]c3ccccc3c2n(-c2cccc([N+](=O)[O-])c2)c1=O [Compound 42]
[1]; [21]
  EC50: 1 to 32 µM

## O=c1ccc2[nH]c3ccccc3c2n1-c1ccc([N+](=O)[O-])cc1 [Compound 66]
[1]; [21]
  EC50: 1 to 32 µM

## CCn1c2ccccc2c2c1cc(C#N)c(=O)n2-c1ccc([N+](=O)[O-])cc1 [Compound 9]
[1]; [21]
  EC50: < 1 µM

## N#Cc1cc2c(c3ccccc3n2C2CCCC2)n(-c2ccc([N+](=O)[O-])cc2)c1=O [Compound 10]
[1]; [21]
  EC50: 1 to 32 µM

## N#Cc1cc2c(c3ccccc3n2Cc2ccccc2)n(-c2ccc([N+](=O)[O-])cc2)c1=O [Compound 6]
[1]; [21]
  EC50: 1 to 32 µM

## CC(=O)CC1C(C#N)=C(N(C)C)N(c2ccc([N+](=O)[O-])cc2)c2c1n(C)c1ccccc21 (centres unmarked) [2-(dimethylamino)-4,5-dihydro-5-methyl-1-(4-nitrophenyl)-4-(2-oxopropyl)-1H-pyrido[3,2-b]indole-3-carbonitrile, reference compound]
[1]; [22]
  EC50: 3.16 µM

## N#Cc1cc2[nH]c3ccccc3c2n(-c2ccc([N+](=O)[O-])cc2)c1=O [Compound 1, 1-(4-nitro-phenyl)-2-oxo-2,5-dihydro-1H-pyrido[3,2-b]indole-3-carbonitrile]
[1]; [22]
  EC50: 0.316 µM
[2]
  fold resistance, mutant A: (8)
  EC50: 2.51 µM
[3]
  fold resistance, mutant B: (4)
  EC50: 1.26 µM
[4]
  fold resistance, mutant C: (8)
  EC50: 2.51 µM
[5]
  fold resistance, mutant D: (3)
  EC50: 1 µM
[6]
  fold resistance, mutant E: (6)
  EC50: 2 µM
[7]
  fold resistance, mutant F: (4)
  EC50: 1.26 µM
[8]
  fold resistance, mutant G: (2)
  EC50: 0.631 µM
[9]
  fold resistance, mutant H: (5)
  EC50: 1.58 µM
[10]
  fold resistance, mutant I: (3)
  EC50: 0.794 µM
[11]
  fold resistance, mutant J: (5)
  EC50: 1.58 µM
[12]
  fold resistance, mutant K: (1)
  EC50: 0.316 µM
[13]
  EC50: 6.31 µM
[14]
  EC50: 7.94 µM
[15]
  CC50 at 5 days: > 32.4 µM

## N#Cc1cc2[nH]c3ccccc3c2n(-c2ccc(F)cc2)c1=O [Compound 37]
[1]; [21]
  EC50: > 32 µM

## Cn1c2ccccc2c2c1ccc(=O)n2-c1ccc(C(N)=O)cc1 [Compound 98]
[1]; [21]
  EC50: 1 to 32 µM

## N#Cc1cc2[nH]c3ccccc3c2n(-c2ccc(F)c([N+](=O)[O-])c2)c1=O [Compound 41]
[1]; [21]
  EC50: 1 to 32 µM

## Cn1c2ccccc2c2c1cc(Br)c(=O)n2-c1ccc([N+](=O)[O-])cc1 [Compound 68]
[1]; [21]
  EC50: < 1 µM

## Cn1c2ccccc2c2c1cc(C#N)c(=O)n2-c1ccc([N+](=O)[O-])cc1 [Compound 2, 5-methyl-1-(4-nitro-phenyl)-2-oxo-2,5-dihydro-1H-pyrido[3,2-b]indole-3-carbonitrile]
[1]; Human immunodeficiency virus 1, MT4, read-out: EC50 value for wild-type HIV
  EC50: < 0.1 µM
[1]; [22]
  EC50: 0.0251 µM
[2]
  fold resistance, mutant A: (4)
  EC50: 0.1 µM
[3]
  fold resistance, mutant B: (1)
  EC50: 0.0316 µM
[4]
  fold resistance, mutant C: (3)
  EC50: 0.0794 µM
[5]
  fold resistance, mutant D: (2)
  EC50: 0.0501 µM
[6]
  fold resistance, mutant E: (3)
  EC50: 0.0631 µM
[7]
  fold resistance, mutant F: (2)
  EC50: 0.0398 µM
[8]
  fold resistance, mutant G: (3)
  EC50: 0.0631 µM
[9]
  fold resistance, mutant H: (5)
  EC50: 0.126 µM
[10]
  fold resistance, mutant I: (3)
  EC50: 0.0631 µM
[11]
  fold resistance, mutant J: (5)
  EC50: 0.126 µM
[12]
  fold resistance, mutant K: (4)
  EC50: 0.1 µM
[13]
  EC50: 0.251 µM
[14]
  EC50: 0.316 µM
[15]
  CC50 at 5 days: > 32.4 µM
[16]
  inhibition of HIV reverse transcriptase in vitro: inhibits HIV reverse transcriptase in vitro
[17]
  EC50: > 32 µM
[18]
  EC50: > 32 µM
[19]
  EC50: > 32 µM
[20]
  EC50: > 32 µM

## N#Cc1cc2[nH]c3ccccc3c2n(-c2ccc(Br)cc2)c1=O [Compound 38]
[1]; [21]
  EC50: 1 to 32 µM
